Assay results published in patent US20130261178A1, “PHENOXYPROPANOL DERIVATIVES AND THEIR USE IN TREATING CARDIAC AND CARDIOVASCULAR DISEASES” (priority 2010, published 2013).

Columns and labels:
[1] = target: beta1-adrenoceptor (Homo sapiens, UniProt P08588); assay: 3H-CGP12177 whole-cell binding, CHO cells expressing human beta1-adrenoceptor; parameters: expressed in transfected cells; host or cells: CHO cells; settings: 3H-CGP 12177 whole cell binding, log KD, mean ± s.e.mean, read-out: Beta 1 Log KD (converted)
From the text: (§1) The selectivity of a ligand is given by the ratio of beta-1 to beta-2 KD.

[2] = target: T1, human beta2-adrenoceptor (Homo sapiens, UniProt P07550); assay: 3H-CGP12177 whole-cell binding, CHO cells expressing human beta2-adrenoceptor; settings: 3H-CGP 12177 whole cell binding, log KD, mean ± s.e.mean, read-out: Beta 2 Log KD (converted)
T1 construct: expressed in transfected cells; host or cells: CHO cells
From the text: as §1

T1 sequence (P07550 whole entry): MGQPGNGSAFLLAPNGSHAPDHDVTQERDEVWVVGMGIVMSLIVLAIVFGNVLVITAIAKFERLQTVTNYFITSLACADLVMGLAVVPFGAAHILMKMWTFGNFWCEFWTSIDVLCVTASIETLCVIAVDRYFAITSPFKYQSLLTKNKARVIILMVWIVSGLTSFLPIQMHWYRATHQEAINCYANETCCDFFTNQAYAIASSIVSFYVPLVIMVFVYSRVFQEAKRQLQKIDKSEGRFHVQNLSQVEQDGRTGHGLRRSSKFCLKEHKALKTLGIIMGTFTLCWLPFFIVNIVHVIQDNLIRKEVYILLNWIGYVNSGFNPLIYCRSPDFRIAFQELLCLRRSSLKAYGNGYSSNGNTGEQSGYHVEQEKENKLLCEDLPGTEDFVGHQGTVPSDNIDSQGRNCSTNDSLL
Sequence of beta1-adrenoceptor (P08588 whole entry): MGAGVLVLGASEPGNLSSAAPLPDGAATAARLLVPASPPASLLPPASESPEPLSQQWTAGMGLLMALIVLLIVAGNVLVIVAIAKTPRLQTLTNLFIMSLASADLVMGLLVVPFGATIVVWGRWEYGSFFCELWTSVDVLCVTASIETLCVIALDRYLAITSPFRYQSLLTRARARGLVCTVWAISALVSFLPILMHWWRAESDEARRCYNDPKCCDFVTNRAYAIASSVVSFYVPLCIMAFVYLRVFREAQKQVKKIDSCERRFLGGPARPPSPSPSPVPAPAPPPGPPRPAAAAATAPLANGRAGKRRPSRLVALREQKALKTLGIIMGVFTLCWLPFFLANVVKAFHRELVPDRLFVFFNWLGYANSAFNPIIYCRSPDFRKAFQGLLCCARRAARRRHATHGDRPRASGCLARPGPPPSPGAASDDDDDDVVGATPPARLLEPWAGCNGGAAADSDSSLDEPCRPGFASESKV

| melting point [°C] | Kd [1] [µM] | Kd [2] [µM] | SMILES |
| --- | --- | --- | --- |
| 131 to 133 |  |  | O=C(NCCNCC(O)COc1ccc(OCCOCC2CC2)cc1)Nc1ccc(OCc2ccccc2)cc1 (stereo not drawn) (hydrate or solvate) [45a] |
| 73.5 |  |  | OC(CNCCOc1cccc(Cl)c1)COc1ccc(OCCOC2CCCC2)cc1 (stereo not drawn) (hydrate or solvate) [65a] |
| 154 to 155 |  |  | OC(CNCCOc1ccc(-c2ccccc2)cc1)COc1ccc(OCCOC2CCCC2)cc1 (stereo not drawn) (hydrate or solvate) [65d] |
| 101 to 103 |  |  | Oc1ccc(OCCNCC(O)COc2ccc(OCCOC3CCCC3)cc2)cc1 (stereo not drawn) (hydrate or solvate) [65e] |
| 136 |  |  | Oc1ccc(OCCCNCC(O)COc2ccc(OCCOC3CCCC3)cc2)cc1 (stereo not drawn) (hydrate or solvate) [65f] |
| 96 to 98 | 0.0832 | > 100 | CCOCCOc1ccc(OCC(O)CNCCNC(=O)Nc2ccc(O)cc2)cc1 (stereo not drawn) [46d] |
| 149 to 152 | 0.0692 | 1.15 | O=C(NCCNCC(O)COc1ccc(OCCOC2CCCC2)cc1)c1ccccc1 (stereo not drawn) [62a] |
| 107 to 109 | 0.0178 | 0.309 | Nc1ccccc1C(=O)NCCNCC(O)COc1ccc(OCCOC2CCCC2)cc1 (stereo not drawn) [62b] |
| 105 to 107.5 | 0.174 | 4.47 | Nc1cccc(C(=O)NCCNCC(O)COc2ccc(OCCOC3CCCC3)cc2)c1 (stereo not drawn) [62c] |
| 67 to 69 | 0.0138 | 5.5 | Nc1ccc(C(=O)NCCNCC(O)COc2ccc(OCCOC3CCCC3)cc2)cc1 (stereo not drawn) [62d] |
| 122 to 124 | 0.0024 | 0.0977 | O=C(Cc1ccccc1F)NCCNCC(O)COc1ccc(OCCOC2CCCC2)cc1 (stereo not drawn) [62g] |
| 116.5 to 118 | 0.00676 | 0.11 | O=C(Cc1cccc(F)c1)NCCNCC(O)COc1ccc(OCCOC2CCCC2)cc1 (stereo not drawn) [62h] |
| 114.5 to 115.5 | 0.00776 | 0.178 | O=C(Cc1ccc(F)cc1)NCCNCC(O)COc1ccc(OCCOC2CCCC2)cc1 (stereo not drawn) [62i] |
| 113.5 to 114.5 | 0.00347 | 0.0575 | O=C(Cc1ccccc1Cl)NCCNCC(O)COc1ccc(OCCOC2CCCC2)cc1 (stereo not drawn) [62j] |
| 117 to 118 | 0.00692 | 0.135 | O=C(Cc1cccc(Cl)c1)NCCNCC(O)COc1ccc(OCCOC2CCCC2)cc1 (stereo not drawn) [62k] |
| 107 to 109 | 0.00759 | 0.162 | O=C(Cc1ccc(Cl)cc1)NCCNCC(O)COc1ccc(OCCOC2CCCC2)cc1 (stereo not drawn) [62l] |
| 120.5 to 121.5 | 0.00955 | 0.126 | O=C(Cc1ccccc1C(F)(F)F)NCCNCC(O)COc1ccc(OCCOC2CCCC2)cc1 (stereo not drawn) [62m] |
| 111.5 to 112.5 | 0.0132 | 0.2 | O=C(Cc1cccc(C(F)(F)F)c1)NCCNCC(O)COc1ccc(OCCOC2CCCC2)cc1 (stereo not drawn) [62n] |
| 132 to 133 | 0.00912 | 0.214 | O=C(Cc1ccc(C(F)(F)F)cc1)NCCNCC(O)COc1ccc(OCCOC2CCCC2)cc1 (stereo not drawn) [62o] |
| 119 to 120.5 | 0.00955 | 0.0724 | Cc1ccccc1CC(=O)NCCNCC(O)COc1ccc(OCCOC2CCCC2)cc1 (stereo not drawn) [62p] |
| 82 to 85 | 0.0501 | 0.776 | Cc1ccc(CC(=O)NCCNCC(O)COc2ccc(OCCOC3CCCC3)cc2)cc1 (stereo not drawn) [62r] |
|  | 0.00282 | 1.15 | O=C(NCCNC[C@H](O)COc1ccc(OCCOC2CCCC2)cc1)Nc1cccc(Cl)c1 [(S)-47l, (S)-1-(2-(3-(4-(2-(Cyclopentyloxy)ethoxy)phenoxy)-2-hydroxypropylamino)ethyl)-3-(3-chlorophenyl)urea] |
|  | 0.000776 | 0.0251 | NC(=O)c1cc(OCCNCC(O)COc2ccc(OCCOC3CCCC3)cc2)ccc1O (stereo not drawn) [compound 72, 5-(2-(3-(4-(2-(Cyclopentyloxy)ethoxy)phenoxy)-2-hydroxypropylamino)ethoxy)-2-hydroxybenzamide] |
